Reference: patent publication US8470772B2, “Leptin agonist and methods of use” (Temple University—Of The Commonwealth System of Higher …, priority 2008, dated 2013)
Starred links: 1 amine or outer side, 2 acyl side, 3 side chain; linkers in the order of their positions; H or OH if unused. Non-standard residues stand in square brackets, D forms with d. No end group written: not given here. *: point of attachment. βGlcAc4 = CC(=O)OC[C@H]1O[C@@H](*)[C@H](OC(C)=O)[C@@H](OC(C)=O)[C@@H]1OC(C)=O; Tyr(Me) = O-methyl Tyr, COc1ccc(C[C@H](N[*:1])C(=O)[*:2])cc1; Tyr(3,5-I2) = N[C@@H](Cc1cc(I)c(O)c(I)c1)C(=O)O; dGla = N[C@H](CC(C(=O)O)C(=O)O)C(=O)O; Dap = NC[C@H](N)C(=O)O; βAla = NCCC(=O)O

What was measured:
MCF-7 cells = experiment: MCF-7 cell stimulation (cell growth) assay, cell counts by trypan blue exclusion; format: cell-based, human; settings: for reversal of leptin-induced cell stimulation: leptin present; for antagonistic activity on leptin-induced MCF-7 cell proliferation: in the presence of exogenous leptin; for agonistic activity on MCF-7 cells: without leptin; for Relative stimulation (%) of MCF-7 cells, No leptin added: no exogenous leptin; for MCF-7 cell count increase: no leptin
Source text: (§1) For the evaluation of the biological activity of the synthesized leptin Site III peptide fragments, human cell lines were selected in which the ObR expression level is known. Two ObR-positive human cell models were used: MCF-7 breast cancer cells and DU-45 prostate cancer cells. Both cell lines express ObR, and leptin and leptin analogues stimulate their growth (C. Garofalo, et al., Clin. Cancer Res., 2004, 10, 6466-6475; C. Garofalo, et al., Clin. Cancer Res., 2006, 12, 1447-1453). Normal mammary epithelial MCF-10 cells lacking ObR were used as a negative control (X. Hu, et al., J. Natl. Cancer Inst., 2002, 94, 1704-1711).
Biological activity of the Site III peptides was assayed as follows. MCF-7 cells were stimulated with 6 nM full-sized leptin. The smaller leptin fragments and analogs were added to the cell culture at a concentration of 10 nM, 100 nM or 1 μM. Leptin at […] concentration stimulated MCF-7 cell growth by approximately 40%, in line with previous observations (C. Garofalo, et al., Clin. Cancer Res., 2004, 10, 6466-6475). All Site III peptides bound to the extracellular domain of ObR as documented by dot-blot or Western-blot analysis. […] In fact, it reversed leptin induced stimulation of MCF-7 cells at as low as 10 nM peptide concentration, with an additional 50% reduction in cell counts at 1 μM. When the assay was run at a more reliably measurable 1 μM peptide concentration, a consistent 6% decrease in cell numbers could be observed compared to the leptin only samples. In summary, in the presence of exogenously added full-sized leptin these assays verified the strong antagonist activity of the Site III Ala,Ala mutant.
(§2) The cell stimulation activity of the Site III peptides was assayed as follows. Human leptin was purchased from R&D Systems and used at a concentration of 100 ng/mL (approximately 6 nM). MCF-7 and DU-45 cells naturally expressing ObR were grown in a standard medium DMEM:F12 plus 5% fetal bovine serum. MCF-10 was grown in serum-free mammalian epithelial growth medium supplemented with 100 ng/mL cholera toxin. Seventy percent confluent cultures were synchronized in serum-free medium (DMEM plus 10 μM FeSO4, plus 0.5% albumin) for 24 h and then treated with leptin and/or peptides (different doses) for 5 days. Cell counts before and after treatment were determined by counting the cells using trypan blue exclusion. All assays were conducted in triplicate and repeated at least twice.

ObR extracellular domain = target: T1, ObR extracellular domain (Homo sapiens, UniProt P48357); experiment: Dot-blot and ELISA-type solid-phase binding assay; settings: dot-blot, Western-blot or ELISA; 10 and 20 μg peptide load in ELISA
T1 construct: human IgG Fc-conjugated ObR extracellular domain (R&D Systems); purchased R&D Systems
T1 sequence (P48357 22-839 limits assumed): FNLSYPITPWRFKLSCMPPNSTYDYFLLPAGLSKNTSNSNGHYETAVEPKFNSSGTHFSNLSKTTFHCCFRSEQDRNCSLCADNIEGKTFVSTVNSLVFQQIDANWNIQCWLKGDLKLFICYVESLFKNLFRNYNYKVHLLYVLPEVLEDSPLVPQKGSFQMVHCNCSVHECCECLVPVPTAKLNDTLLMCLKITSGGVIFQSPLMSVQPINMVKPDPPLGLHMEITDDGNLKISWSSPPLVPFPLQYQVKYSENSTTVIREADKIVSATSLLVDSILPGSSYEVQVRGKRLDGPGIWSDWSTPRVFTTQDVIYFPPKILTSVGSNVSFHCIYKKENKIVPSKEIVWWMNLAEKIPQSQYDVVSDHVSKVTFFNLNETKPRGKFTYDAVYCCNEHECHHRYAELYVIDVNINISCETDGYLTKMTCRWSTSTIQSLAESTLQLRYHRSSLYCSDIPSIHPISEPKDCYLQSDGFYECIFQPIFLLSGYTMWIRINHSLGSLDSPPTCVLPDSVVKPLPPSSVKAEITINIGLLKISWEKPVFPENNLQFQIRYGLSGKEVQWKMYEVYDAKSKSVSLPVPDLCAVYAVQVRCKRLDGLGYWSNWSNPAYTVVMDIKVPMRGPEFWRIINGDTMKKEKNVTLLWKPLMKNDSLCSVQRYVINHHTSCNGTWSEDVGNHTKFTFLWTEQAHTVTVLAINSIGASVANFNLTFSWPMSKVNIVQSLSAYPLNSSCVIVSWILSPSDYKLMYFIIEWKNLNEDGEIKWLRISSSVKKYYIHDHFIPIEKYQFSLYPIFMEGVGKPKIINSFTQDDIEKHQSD
Procedure: For dot-blot and ELISA assays, the leptin fragments were dissolved in electroblot transfer buffer (25 mM Tris and […] buffer containing 20% methanol) and were applied to either a nitrocellulose membrane or dried upon ELISA plates (Otvos, L., Jr., and Szendrei, G. I. (1996) Enzyme-linked immunosorbent assay of peptides. In: Neuropeptide Protocols (G. B. Irvine and C. H. Williams, eds.). Humana Press, Totowa, N.J., pp. 269-275). The solid surfaces were blocked with 5% BSA in a PBS-0.5% Tween 20 buffer (PBST) for 3 hours at room temperature and were subsequently incubated with 10 μg/mL solution of human IgG Fc-conjugated ObR extracellular domain (R&D Systems) dissolved in Tris-buffered saline-0.1% Tween 20 buffer (TBST) containing 1% bovine serum albumin (BSA) for 1 hour. A monoclonal goat antibody (Santa Cruz Biotechnology), specific for the N-terminus of human ObR, was added to the assay mixture, followed by addition of a horseradish peroxidase(HRP)-conjugated anti-goat IgG donkey antibody for the dot-blot assay, and HRP-conjugated anti-goat Fc mouse antibody for ELISA assay (used at a 1:15,000 dilution in PBST and 1% BSA). Between reagents, the solid surfaces were washed extensively with PBST. After washing with PBST, the membrane was treated with a chemiluminescence luminol oxidizer (NEN) for 1 min. The resultant chemiluminescence was exposed to a X-Omat blue XB-1 film (Kodak) for 10 seconds, and the exposed film was developed. The ELISA was developed using an HRP ELISA kit including tetramethylbenzidine as a substrate and sulfuric acid as a stop solution. Optical absorbance values were read at 490 nm using a microplate reader.

DU-45 cells = experiment: DU-45 cell stimulation (proliferation) assay; format: cell-based, human
Source text: as §1
as §2, with “All assays were conducted in triplicate and repeated at least twice.” left out

MCF-10 cells = experiment: MCF-10 control cell proliferation assay (cells lacking ObR); format: cell-based, human; settings: for effect on the proliferation of MCF-10 cells: control cell line lacking ObR
Source text: as §1, §2

[1] = tested on: astrocytes, brain capillary endothelial cells; experiment: In vitro model of blood-brain-barrier penetration (Transwell cell layers); format: in vitro ADME, human; settings: 0.1 mM peptide in upper compartment
Source text: To confirm the ability of the E1 peptides to cross the blood-brain barrier, penetration of the protected (E1Ac) and free (E1Free) glycopeptides across confluent layers of astrocytes, brain endothelial cells, or a double layer of these two cell types was examined, in comparison with the Site III Ala,Ala non-glycosylated analog.
A confluent monolayer of human astrocytes or brain capillary endothelial cells, or a dual layer of both cell types (astrocytes first, followed by endothelial cells) were grown at 37° C. on polycarbonate filters (Costar, Transwell, 0.4 μm) that were pretreated with collagen. Under these conditions, the endothelial cells retain the characteristics of the blood-brain-barrier, which include complex tight junctions, low rates of pinocytosis and low enzyme levels (S. Lundquist, et al., Pharm. Res., 2002, 19, 976-981). A 0.1 mM solution of each of E1Ac, E1Free or Site III Ala,Ala was added to the upper compartment of the Transwell plates. The plates were then placed back in the incubator and samples were taken from the bottom compartments at 0, 5, 10, 30, and 120 minute intervals. The identity and quantity of peptides that had penetrated through the cell layers were subsequently analyzed by RP-HPLC and MALDI-MS.

## Gly-Tyr(I2)-Ser-Thr-D-Gla-Val-Val-D-Ala-Leu-Ser-Arg-Leu [F2]
MCF-7 cells; 1 μM peptide
  reversal of leptin-induced cell stimulation: 15%
MCF-7 cells; 1 μM peptide, with 10 nM leptin
  Relative stimulation (%) of MCF-7 cells, With 10 nM leptin: −15%
MCF-7 cells
  antagonistic activity on leptin-induced MCF-7 cell proliferation: antagonists
  agonistic activity on MCF-7 cells: agonists

## Gly-Tyr(I2)-Ser-Thr-Glu-Val-Va1-βAla-Leu-Ser-Arg-Leu (G[Tyr(3,5-I2)]STEVV[βAla]LSRL-NH2) [A4]
MCF-7 cells; 1 μM peptide
  Relative stimulation (%) of MCF-7 cells, No leptin added: +102%

## pyrrhocoricin: negative control antibacterial peptide with Pro-Arg-Pro repeats, equal in size with the leptin fragments (VDKGSYLPRPTPPRPIYNRN) [reference compound]
ObR extracellular domain
  binding to the extracellular domain of ObR: did not bind

## Tyr(Me)-Ser-Thr-Glu-Val-Val-βAla-Leu-Ser-Arg-Leu ([Tyr(Me)]STEVV[βAla]LSRL-NH2) [A11]
MCF-7 cells; 1 μM peptide
  Relative stimulation (%) of MCF-7 cells, No leptin added: +19%
MCF-7 cells
  antagonistic activity on leptin-induced MCF-7 cell proliferation: basically inactive

## Leptin: Human leptin purchased from R&D Systems; full-length sequence SEQ ID NO:1
MCF-7 cells; leptin at 10 nM
  stimulation of MCF-7 cell growth: approximately 40%

## Tyr(Me)-Ser-Thr-D-Gla-Val-Val-D-Ala-Leu-Ser-Arg-Leu ([Tyr(Me)]ST[dGla]VV[dA]LSRL-NH2) [D12]
MCF-7 cells; 1 μM peptide
  reversal of leptin-induced cell stimulation: 43%
MCF-7 cells
  antagonistic activity on leptin-induced MCF-7 cell proliferation: antagonists
  agonistic activity on MCF-7 cells: agonists

## SGYSTEVVALSRLQGS [Site III 117-132]
MCF-7 cells; 1 μM peptide, in the presence of 10 nM leptin
  reduction in leptin-induced cell growth: 21%
MCF-7 cells
  agonistic activity on MCF-7 cells: did not noticeably influence the cell growth
DU-45 cells
  effect on the proliferation of DU-45 cells: no effect
MCF-10 cells; listed as Site III peptide
  effect on the proliferation of MCF-10 cells: did not demonstrate a major effect
MCF-10 cells; listed as site III fragment
  effect on the proliferation of MCF-10 cells: no effect

## Tyr(I2)-Serβ(GlcAc4)-Thr-Glu-Val-Val-Ala-Leu-Ser-Arg-Leu-Dap(Ac) ([Tyr(3,5-I2)]S(βGlcAc4)TEVVALSRL[Dap](Ac)-NH2) [E1Ac]
MCF-7 cells; 100 nM peptide
  MCF-7 cell count increase: 54%
MCF-7 cells; 1000 nM peptide, in the presence of 6 nM leptin
  further increase of leptin-induced cell stimulation: 17%
MCF-7 cells; 1000 nM peptide
  MCF-7 cell count increase: 101%
MCF-7 cells; in the presence and absence of leptin
  overall agonist character on cells expressing ObR: full agonists
ObR extracellular domain
  binding to the extracellular domain of ObR: bound
MCF-10 cells; 100 nM and 1000 nM peptide
  activity on MCF-10 normal mammary epithelial cells: inactive

## SGYAAEVVALSRLQGS-NH2 [Site III Ala,Ala, Ser-Gly-Tyr-Ala-Ala-Glu-Val-Val-Ala-Leu-Ser-Arg-Leu-Gln-Gly-Ser]
[1]
  earliest time point at which peptide was detected in the bottom compartment: 30 min
